Experimental data: US20240270821A1, “GIP/GLP1/GCG TRI-RECEPTOR AGONISTS AND USES THEREOF” (priority 2023, published 2024)
Marks after values point to notes of the source that are not given here. Starred links: 1 amine or outer side, 2 acyl side, 3 side chain; linkers in the order of their positions; H or OH if unused. Non-standard residues stand in square brackets, D forms with d. Groups on a side chain read outwards from the residue. No end group written: not given here. *: point of attachment. C20 diacid = O=C(O)CCCCCCCCCCCCCCCCCCC(=O)*; C18 diacid = O=C(O)CCCCCCCCCCCCCCCCC(=O)*; αMePhe(2-F) = C[C@](N)(Cc1ccccc1F)C(=O)O; γGlu = O=C(O)[C@H](CCC(=O)[*:2])N[*:1]; NMeY = CN[C@@H](Cc1ccc(O)cc1)C(=O)O; αMe4Pal = C[C@](N)(Cc1ccncc1)C(=O)O; αMeY = C[C@](N)(Cc1ccc(O)cc1)C(=O)O; αMeF = C[C@](N)(Cc1ccccc1)C(=O)O; 4Pal = N[C@@H](Cc1ccncc1)C(=O)O; αMeL = CC(C)C[C@](C)(N)C(=O)O; Orn = NCCC[C@H](N)C(=O)O; Dap = NC[C@H](N)C(=O)O; AEEA = NCCOCCOCC(=O)O; Aib = CC(C)(N)C(=O)O

How the values were obtained:
human GcgR = human GcgR (Homo sapiens, UniProt P47871); assay: Functional cAMP activity in the presence of 1% HSA; type: cell-based; settings: read-out: cAMP Rel EC50, hGcgR
Chain of human GcgR (P47871 26-477): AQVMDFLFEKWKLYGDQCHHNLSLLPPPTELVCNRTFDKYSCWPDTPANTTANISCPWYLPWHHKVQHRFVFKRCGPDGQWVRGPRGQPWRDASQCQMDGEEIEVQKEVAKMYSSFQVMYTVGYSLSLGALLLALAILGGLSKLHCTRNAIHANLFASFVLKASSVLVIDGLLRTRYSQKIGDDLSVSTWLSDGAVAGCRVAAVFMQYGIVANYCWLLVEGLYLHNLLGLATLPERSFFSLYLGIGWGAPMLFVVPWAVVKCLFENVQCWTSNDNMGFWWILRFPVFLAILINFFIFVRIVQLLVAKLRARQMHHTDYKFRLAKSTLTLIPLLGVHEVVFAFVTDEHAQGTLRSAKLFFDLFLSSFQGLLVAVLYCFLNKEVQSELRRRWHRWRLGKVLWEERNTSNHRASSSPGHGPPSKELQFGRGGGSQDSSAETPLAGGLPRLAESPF

hGIPR [1] = biological target: T1, hGIPR (Homo sapiens, UniProt P48546); assay: Functional cAMP activity in the presence of 1% HSA; type: cell-based; settings: read-out: cAMP Rel EC50, hGIPR
T1 sequence (P48546 22-466): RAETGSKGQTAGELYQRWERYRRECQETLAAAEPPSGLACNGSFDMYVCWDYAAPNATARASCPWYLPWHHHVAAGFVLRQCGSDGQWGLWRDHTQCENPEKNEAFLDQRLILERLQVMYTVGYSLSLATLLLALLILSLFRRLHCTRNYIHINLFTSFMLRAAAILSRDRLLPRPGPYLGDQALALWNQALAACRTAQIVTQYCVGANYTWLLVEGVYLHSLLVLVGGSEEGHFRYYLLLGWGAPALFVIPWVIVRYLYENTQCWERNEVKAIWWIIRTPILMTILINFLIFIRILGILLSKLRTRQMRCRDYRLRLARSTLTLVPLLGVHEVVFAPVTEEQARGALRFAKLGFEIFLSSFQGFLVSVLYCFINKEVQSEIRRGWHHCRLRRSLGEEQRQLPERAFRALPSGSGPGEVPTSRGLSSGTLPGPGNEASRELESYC

hGLP-1R [2] = biological target: T2, hGLP-1R (Homo sapiens, UniProt P43220); assay: Functional cAMP activity in the presence of 1% HSA; type: cell-based; settings: read-out: cAMP Rel EC50, hGLP-1R
Target sequence in this assay (P43220 24-463): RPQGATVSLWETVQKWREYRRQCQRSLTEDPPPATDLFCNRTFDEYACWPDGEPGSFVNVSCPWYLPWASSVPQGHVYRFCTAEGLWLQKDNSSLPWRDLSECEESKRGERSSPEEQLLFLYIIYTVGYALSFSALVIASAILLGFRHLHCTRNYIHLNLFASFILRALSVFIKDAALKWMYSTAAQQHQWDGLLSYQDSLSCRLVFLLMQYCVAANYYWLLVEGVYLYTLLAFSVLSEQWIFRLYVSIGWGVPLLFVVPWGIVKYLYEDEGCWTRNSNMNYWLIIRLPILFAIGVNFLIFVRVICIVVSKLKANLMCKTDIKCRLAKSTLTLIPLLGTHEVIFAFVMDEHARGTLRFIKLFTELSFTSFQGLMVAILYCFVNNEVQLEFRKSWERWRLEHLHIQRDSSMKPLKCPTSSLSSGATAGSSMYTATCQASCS

[3] = Body weight in diet-induced obese C57BL/6 mice; type: in vivo; settings: percent of starting weight, DIO mice, mean ± SEM n=5
Method: To investigate the effect of the polypeptides as described herein on weight loss, exemplary polypeptides are dosed to C57BL/6 diet-induced obese (DIO) mice. Specifically, DIO male C57BL/6 mice (Taconic, Germantown, NY) maintained on a calorie-rich diet are used in the following studies. Mice are individually housed in a temperature-controlled (24° C.) facility with 12-hour light/dark cycle (lights on 22:00) and free access to food (TD95217) and water. After a minimum of 2 weeks acclimation to the facility, the mice are randomized according to their body weight, so each experimental group of animals would have similar starting body weight. The body weights range from 41 to 50 g. All groups contain 5 mice. […] Treatments are administered by subcutaneous (SC) injection (10 mL/kg) to ad libitum fed DIO mice 30 to 90 minutes prior to the onset of the dark cycle either once daily (QD) or once every 3 days (Q3D) for 9-16 days. Body weight and food intake are measured daily throughout the study. Body weight is presented as percent of the starting weight. […] Data are presented as mean±SEM of 5 animals per group in Table 7 below. Statistical analysis is performed using repeated measures ANOVA, followed by Dunnett's method comparison test.

hGIPR [4] = biological target: T1, hGIPR; assay: Functional cAMP activation in the presence of 0.1% casein (no HSA); type: cell-based; settings: in the presence of 0.1% casein (no HSA); geometric mean; read-out: Relative cAMP EC50, hGIPR;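 for Relative cAMP EC50, hGIPR: intracellular cAMP rise after 30 min at 37 °C read by HTRF against a standard curve, scaled between buffer alone (0%) and top control ligand concentration (100%), four-parameter fit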;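 for Relative cAMP EC50, hGLP-1R: intracellular cAMP rise after 30 min at 37 °C read by HTRF, normalized between buffer only (0%) and maximal control ligand (100%), four-parameter variable-slope fit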;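 for Relative cAMP EC50, hGcgR: intracellular cAMP rise after 30 min at 37 °C, read by HTRF against a cAMP standard curve, scaled from buffer only (0%) to maximal control ligand response (100%)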
hGLP-1R [5] = biological target: T2, hGLP-1R; assay: GLP-1R CHO cell β-arrestin recruitment assay; type: cell-based; set-up: host or cells: CHO-K1 (PathHunter, assay-ready frozen cells); settings: for EC50: CHO-K1 PathHunter, β-arrestin-2, 0.1% casein, read-out: hGLP1R β-arrestin Rel EC50; for % Stimulation Max: normalized to GLP-1(7-36) as maximum control;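 for all read-outs here: luminescence read after 90 min peptide exposure at 37 °C and a further 60 min with detection reagent at room temperature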
Target sequence in this assay (P43220 24-463): as above
Target sequence in this assay (P32121 whole entry partner): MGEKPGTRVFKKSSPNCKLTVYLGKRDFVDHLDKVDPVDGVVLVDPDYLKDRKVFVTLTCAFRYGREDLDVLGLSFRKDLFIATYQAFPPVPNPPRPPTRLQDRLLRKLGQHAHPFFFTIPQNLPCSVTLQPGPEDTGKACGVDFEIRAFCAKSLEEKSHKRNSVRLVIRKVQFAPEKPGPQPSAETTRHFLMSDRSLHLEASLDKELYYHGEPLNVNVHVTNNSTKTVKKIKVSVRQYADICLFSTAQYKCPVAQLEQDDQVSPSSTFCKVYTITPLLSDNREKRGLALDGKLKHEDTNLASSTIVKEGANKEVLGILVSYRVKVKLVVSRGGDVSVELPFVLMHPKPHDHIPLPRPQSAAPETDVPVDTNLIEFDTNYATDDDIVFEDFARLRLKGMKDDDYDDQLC
Method: CHO-KI cells expressing Pro-Link-tagged Human GLP-1R and enzyme-acceptor-tagged β-arrestin-2 may be obtained from DiscoveRx and prepared as assay-ready frozen cells. Test peptides are solubilized in DMSO and serial dilutions are performed using the Echo acoustic dispenser (LabCyte). Assay media is the PathHunter Cell Assay Buffer (DiscoveRx) containing 0.1% w/v hydrolyzed Casein (Sigma). […] Plates are incubated for 90 minutes in a 37′C/5% C02 incubator and 10 μl of PathHunter detection reagent is added (DiscoveRx) and plates are incubated at room temperature for 60 minutes. Luminescence signal is measured. Peptide concentration-response curves fit to a four-parameter logistic model to calculate potency as an EC50.

hGLP-1R [6] = biological target: T2, hGLP-1R; assay: Functional cAMP activation in the presence of 0.1% casein (no HSA); type: cell-based; settings: in the presence of 0.1% casein (no HSA); geometric mean; read-out: Relative cAMP EC50, hGLP-1R;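 for Relative cAMP EC50, hGIPR: intracellular cAMP rise after 30 min at 37 °C read by HTRF against a standard curve, scaled between buffer alone (0%) and top control ligand concentration (100%), four-parameter fit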;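 for Relative cAMP EC50, hGLP-1R: intracellular cAMP rise after 30 min at 37 °C read by HTRF, normalized between buffer only (0%) and maximal control ligand (100%), four-parameter variable-slope fit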;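 for Relative cAMP EC50, hGcgR: intracellular cAMP rise after 30 min at 37 °C, read by HTRF against a cAMP standard curve, scaled from buffer only (0%) to maximal control ligand response (100%)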
Target sequence in this assay (P43220 24-463): as the sequence (P43220 24-463) above

hGcgR = hGcgR (Homo sapiens, UniProt P47871); assay: as above; type: cell-based; settings: in the presence of 0.1% casein (no HSA); geometric mean; read-out: Relative cAMP EC50, hGcgR;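 note: intracellular cAMP rise after 30 min at 37 °C, read by HTRF against a cAMP standard curve, scaled from buffer only (0%) to maximal control ligand response (100%)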
Chain of hGcgR (P47871 26-477): as the sequence (P47871 26-477) above

human GLP1-R = human GLP1-R (Homo sapiens, UniProt P43220); assay: GLP1-R internalization assay in HEK293 cells; type: cell-based; settings: for EC50: HEK293 cells expressing SNAP-GLP-1R, read-out: GLP1R Internalization EC50; for Internalization % TOP: normalized to maximum concentration of GLP-1 (100%)
Chain of human GLP1-R (P43220 24-463): as the sequence (P43220 24-463) above

[7] = tested on: Intestinal organoid from Göttingen minipig jejunum tissue, 2D monolayer; assay: Cell based in vitro permeability (Papp) assay; type: in vitro ADME
Summary of the method: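 2D monolayers derived from Göttingen minipig jejunal organoids on transwell inserts. Basal samples collected at 20 min in the presence of C10. Peptide in apical and basal compartments quantified by LC/MS to give Papp.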

[8] = Pepsin stability assay in simulated gastric fluid; type: in vitro ADME; settings: pH 1.2, % Intact (SD)
Method: A pepsin stability assay is utilized to determine the relative stability of Example polypeptides in a simulated gastric proteolytic environment. […] The relative amount of intact peptide is quantified by mass spectrometry (MS). […] The examples were dissolved in 50 mM Tris buffer pH 8.0 at a concentration of 10 mg/mL as a stock solution. Pepsin A was reconstituted in SGF at 10 mg/mL. […] The example peptide and pepsin solutions were then incubated at 37° C. in a shaking incubator set at 100 rpm. Samples (25 μL) were withdrawn at different time intervals and quenched with 100 mM ammonium bicarbonate pH 9 (50 μL) to stop proteolytic activity. All samples were centrifuged, and the supernatants were analyzed by LC/MS to determine the remaining intact peptide.

Substance	EC50 (human GcgR) [nM]	EC50 (hGIPR [1]) [nM]	EC50 (hGLP-1R [2]) [nM]	Body weight (%) ([3]; 10 nmol/kg SC QD, 16 days)	EC50 (hGIPR [4]) [nM]	EC50 (hGLP-1R [5]) [nM]	% Stimulation Max (hGLP-1R [5]) [%]	EC50 (hGLP-1R [6]) [nM]	EC50 (hGcgR) [nM]	EC50 (human GLP1-R) [nM]	Internalization % TOP (human GLP1-R) [%]	Body weight (%) ([3]; 10 nmol/kg SC Q3D, 14 days)	Relative Papp (Compared to internal standard) [7]	remaining at 0.25 h, 0.4 mg/mL [8] [%]	remaining at 0.5 h, 0.4 mg/mL [8] [%]	remaining at 1 h, 0.4 mg/mL [8] [%]
H-H[Aib]QGT[αMePhe(2-F)]TSDYSILLDKK([AEEA-γGlu-C20 diacid])AA[Aib]AFIEYLIETGPSSGEPPPSEG-NH2 [Example 290]	878	53.4	90	65.40 ± 3.45	0.43	3.94	83.5	0.34	2.68							
H-Y[Aib]QGTFTSDFSI[αMeL]LDKK([AEEA-γGlu-C20 diacid])AQ[Aib]AFIEYLLEGGPSSGEPPPSEG-NH2 [Example 288]	3580	59.1	616		0.234	16.3	18	1.89	5.17	30.3	72.4	86.18 ± 0.67 %				
H-Y[Aib]QGTFTSDFSK[αMeL]LDKK([AEEA-γGlu-C20 diacid])AQ[Aib]AFIEYLLAGGPSSGEPPPSEE-NH2 [Example 4]	1580	62.3	869		0.192	23.2	15.8	1.66	3.2	49.1	67.8	83.00 +/− 0.88**** %				
H-Y[Aib]QGTFTSDFS[Dap][αMeL]LDKK([AEEA-γGlu-C18 diacid])AQ[Aib]AFIEYLLE[Aib]GPSSGAPPPSGS-NH2 [Example 134]	1200	38.3	549		0.152			3.36	7.28	67.9	22.3	93.28 +/− 1.38%	0.07			
H-Y[Aib]QGTFTSDFS[Orn][αMeL]LDKK([AEEA-γGlu-C18 diacid])AQ[Aib]AFIEWLLEGGPSSGAPPPEGS-NH2 [Example 121]	442	24.6	348		0.172			2.38	4.89	38.1	46.3	85.58 +/− 3.20**** %	0.08			
H-Y[Aib]QGTFTSDFS[Orn][αMeL]LDKK([AEEA-γGlu-C18 diacid])AQ[Aib]AFIEYLLAGGPSSGEPPPSGS-NH2 [Example 94]	1220	21.4	480		0.154			2.63	8.16	37.1	47.2	84.92 +/− 1.79**** %	0.02			
H-Y[Aib]QGTFTSDYSK[αMeL]LDKK([AEEA-γGlu-C20 diacid])AQQAFVQWLIEGGPSSGEPPPSEG-NH2 [Example 315]	1560	85.1	140		0.398	3.76	29.7	0.508	4.05			79.76 +/− 1.72**** %				
H-Y[Aib]QGTFTSD[4Pal]SQ[αMeL]LD[Orn]K([dE-γGlu-C18 diacid])AQ[αMe4Pal]EFI[dE][αMeY]LIAGGPSSGAPPPSGSEEE-NH2 [Example 1235]														1.4	0	0
H-Y[Aib]QGT[αMePhe(2-F)]TSDYSILLDKIAAK([AEEA-γGlu-C20 diacid])AFIEYLIEGGPSSGEPPPSEG-NH2 [Example 296]	517	21.8	171	49.64 ± 1.97	0.0806	14	55.2	0.536	1.72	19.2	87.2					
H-Y[Aib]QGT[αMePhe(2-F)]TSDYSKLLDKIAQK([AEEA-γGlu-C20 diacid])AFIEYLLEGGPSSGEPPPSEG-NH2 [Example 295]	605	61.1	232	51.58 ± 3.24	0.126	16.4	44.1	0.831	2.15	31.4	88.4					
H-[NMeY][Aib]QGT[αMeF]TSDYSSLLDKIAAK([AEEA-AEEA-γGlu-C20 diacid])AFIEYLLEGGPSSGEPPPSEG-NH2 [Example 297]	2320	325	1130	48.42 ± 2.86	0.626	60.2	33.5	2.96	3.26							
Y[Aib]QGTFTSDFS[Orn][αMeL]LDKK([AEEA-γGlu-C18 diacid])AQ[Aib]AFIEYLLAGGPSSGEPPPEGE-NH2 [Example 98]	867	33.8	660		0.179			4.35	6.91	56	49.3	90.78 +/− 1.26* %				
Y[Aib]QGTFTSDFS[Orn][αMeL]LDKK([AEEA-γGlu-C18 diacid])AQ[Aib]AFIEYLLEGGPSSGAPPPGGS-NH2 [Example 62]	396	31.2	299		0.146			2.72	3.96	40.3	44.9	88.05 +/− 1.08*** %	0.03			
